Our source for the zone of inhibition values is ChEMBL document CHEMBL3232789, “Design and synthesis of novel 2H-chromen-2-one derivatives bearing 1,2,3-triazole moiety as lead antimicrobials” (2014).

Assay [1] deals with Aspergillus niger. Nature of the assay: Antifungal activity against Aspergillus niger MTCC 282 assessed as growth inhibition at 100 ug/mL after 30 hrs by cup plate method. Format: functional. The settings on record: MTCC 282, 30 h, read-out: DIZ.
The subject of assay [2] is Aspergillus fumigatus. Nature of the assay: Antifungal activity against Aspergillus fumigatus MTCC 343 assessed as growth inhibition at 100 ug/mL after 30 hrs by cup plate method. Format: functional. To be noted: MTCC 343, 30 h, read-out: DIZ.
Assay [3] has as its system Aspergillus flavus. Put plainly: Antifungal activity against Aspergillus flavus MTCC 277 assessed as growth inhibition at 100 ug/mL after 30 hrs by cup plate method. To be noted: MTCC 277, 30 h, read-out: DIZ. Format: functional.
Assay [4] relates to Candida albicans. Nature of the assay: Antifungal activity against Candida albicans MTCC 227 assessed as growth inhibition at 100 ug/mL after 30 hrs by cup plate method. Format: functional. The settings on record: MTCC 227, 30 h, read-out: DIZ.
Assay [5] has as its system Staphylococcus aureus. Put plainly: Antibacterial activity against Staphylococcus aureus MTCC 096 assessed as growth inhibition at 100 ug/mL after 14 hrs by cup plate method. Format: functional. To be noted: MTCC 096, 14 h, read-out: DIZ.
The test system of assay [6] is Bacillus subtilis. Put plainly: Antibacterial activity against Bacillus subtilis MTCC 441 assessed as growth inhibition at 100 ug/mL after 14 hrs by cup plate method. Format: functional. The settings on record: MTCC 441, 14 h, read-out: DIZ.
For assay [7], the system named is Staphylococcus epidermidis. Nature of the assay: Antibacterial activity against Staphylococcus epidermidis MTCC 435 assessed as growth inhibition at 100 ug/mL after 14 hrs by cup plate method. Format: functional. To be noted: MTCC 435, 14 h, read-out: DIZ.
The test system of assay [8] is Escherichia coli. Put plainly: Antibacterial activity against Escherichia coli MTCC 443 assessed as growth inhibition at 100 ug/mL after 14 hrs by cup plate method. Format: functional. The settings on record: MTCC 443, 14 h, read-out: DIZ.
The test system of assay [9] is Pseudomonas aeruginosa. Nature of the assay: Antibacterial activity against Pseudomonas aeruginosa MTCC 424 assessed as growth inhibition at 100 ug/mL after 14 hrs by cup plate method. Format: functional. The settings on record: MTCC 424, 14 h, read-out: DIZ.
In assay [10] the test system is Salmonella typhi. Nature of the assay: Antibacterial activity against Salmonella typhi MTCC 733 assessed as growth inhibition at 100 ug/mL after 14 hrs by cup plate method. Format: functional, Salmonella enterica subsp. enterica serovar Typhi. To be noted: Salmonella enterica, MTCC 733, 14 h; read-out: DIZ.
Assay [11] relates to Klebsiella pneumoniae. Put plainly: Antibacterial activity against Klebsiella pneumoniae MTCC 432 assessed as growth inhibition at 100 ug/mL after 14 hrs by cup plate method. Format: functional. The settings on record: MTCC 432, 14 h, read-out: DIZ.

With `Cc1cc(=O)oc2cc(OCCCCCCn3cc(CN4C(=O)c5ccccc5C4=O)nn3)ccc12`, the zone of inhibition at 100 µg/mL was 13.9 mm in [1]; 18.5 mm in assay [2]; 15.2 mm in assay [3]; 14.9 mm in assay [4]; 12.9 mm in assay [5]; 12.8 mm in assay [6]. Further, the zone of inhibition at 100 µg/mL in assay [7] is 12.6 mm; in assay [8], 13.4 mm; in assay [9], 12.8 mm; in [10], 12.4 mm; in [11], 12.9 mm.

On to `Cc1cc(=O)oc2cc(OCCCCCCn3cc(CN4CCN(C)CC4)nn3)ccc12`, for which the zone of inhibition at 100 µg/mL turned out to be 14 mm in assay [1]; 18.4 mm in assay [2]; 14.4 mm in assay [3]; 13.6 mm in [4]; 12.5 mm in [5]; 12.4 mm in [6]. In addition, the zone of inhibition at 100 µg/mL was 14.6 mm in [7]; 14.7 mm in assay [8]; 13.9 mm in [9]; 13.1 mm in [10]; 12.4 mm in assay [11].

For the compound `Cc1cc(=O)oc2cc(OCCCCCCn3cc(CN4CCCCC4)nn3)ccc12`, the zone of inhibition at 100 µg/mL was determined as 11.9 mm in [1]; 18.8 mm in assay [2]; 12.5 mm in assay [3]; 14 mm in [4]; 12.9 mm in [5]; 12.6 mm in [6]. The zone of inhibition at 100 µg/mL was determined as 13.1 mm in [7]; 12.8 mm in assay [8]; 13.2 mm in [9]; 14.4 mm in [10]; 12.9 mm in assay [11].

Turning to `Cc1cc(=O)oc2cc(OCc3cn(CCCN4C(=O)c5ccccc5C4=O)nn3)ccc12`, the zone of inhibition at 100 µg/mL in assay [1] was 13.2 mm; in [2], 21.3 mm; in [3], 16.4 mm; in [4], 18.6 mm; in [5], 12.8 mm; in assay [6], 12.5 mm. Further, the zone of inhibition at 100 µg/mL in assay [7] was found to be 11.4 mm; in assay [8], 12.6 mm; in assay [9] it was 13.1 mm; in assay [10], 12.3 mm; in assay [11], 14.4 mm.

In the case of `CC(=O)N1CCN(Cc2cn(CCCCCCOc3ccc4c(C)cc(=O)oc4c3)nn2)CC1`, the zone of inhibition at 100 µg/mL came out at 12.7 mm in [1]; 18.2 mm in assay [2]; 12.9 mm in [3]; 14.7 mm in assay [4]; 14.4 mm in [5]; 12.4 mm in assay [6]. In addition, the zone of inhibition at 100 µg/mL stood at 14.8 mm in [7]; 13.3 mm in [8]; 17.1 mm in assay [9]; 12.1 mm in assay [10]; 14.4 mm in [11].

Turning to `Cc1cc(=O)oc2cc(OCCCCCCn3cc(CN4CCOCC4)nn3)ccc12`, the zone of inhibition at 100 µg/mL in assay [1] turned out to be 12.9 mm; in assay [2], 16.9 mm; in assay [3], 16.8 mm; in assay [4], 13.5 mm; in [5], 11.7 mm; in assay [6], 15.4 mm. For the same compound, the zone of inhibition at 100 µg/mL in assay [7] was found to be 13.4 mm; in [8], 14.4 mm; in assay [9] it was 14.5 mm; in assay [10], 13.5 mm; in assay [11], 14.6 mm.

With `Cc1cc(=O)oc2cc(OCCCCCCn3cc(CN4CCN(Cc5ccc6c(c5)OCO6)CC4)nn3)ccc12`, the zone of inhibition at 100 µg/mL turned out to be 11.9 mm in assay [1]; 20.6 mm in assay [2]; 15 mm in assay [3]; 16.8 mm in [4]; 14 mm in assay [5]; 12.5 mm in assay [6]. The zone of inhibition at 100 µg/mL stood at 11.9 mm in assay [7]; 12.3 mm in assay [8]; 14.9 mm in [9]; 14.1 mm in assay [10]; 13.9 mm in assay [11].

Regarding `Cc1cc(=O)oc2cc(OCc3cn(CCN4C(=O)c5ccccc5C4=O)nn3)ccc12`, the zone of inhibition at 100 µg/mL was 14.4 mm in [1]; 19.5 mm in assay [2]; 12.5 mm in assay [3]; 20.2 mm in assay [4]; 13 mm in [5]; 10.5 mm in assay [6]. Also, the zone of inhibition at 100 µg/mL turned out to be 12.4 mm in assay [7]; 14.5 mm in [8]; 13 mm in assay [9]; 11.9 mm in assay [10]; 13.3 mm in assay [11].

Regarding `Cc1cc(=O)oc2cc(OCCCCCCN=[N+]=[N-])ccc12`, the zone of inhibition at 100 µg/mL in [1] is 13.8 mm; in [2], 19 mm; in assay [3], 16.4 mm; in assay [4] it was 18.7 mm; in [5] it was 15.7 mm; in [6] it was 12.5 mm. The zone of inhibition at 100 µg/mL in assay [7] is 13.5 mm; in assay [8], 14.3 mm; in assay [9], 13 mm; in [10], 12.4 mm; in assay [11], 14.5 mm.

Consider `Cc1cc(=O)oc2cc(OCCCCCCn3cc(CN4CCCC4)nn3)ccc12`, for which the zone of inhibition at 100 µg/mL worked out at 12.5 mm in assay [1]; 18.5 mm in assay [2]; 14.7 mm in assay [3]; 14.4 mm in [4]; 13.6 mm in [5]; 14 mm in assay [6]. The zone of inhibition at 100 µg/mL in assay [7] was 14 mm; in assay [8], 11.7 mm; in assay [9] it was 14.8 mm; in assay [10] it was 15.2 mm; in assay [11] it was 14.4 mm.

As to `Cc1cc(=O)oc2cc(OCc3cn(CCCCCN4C(=O)c5ccccc5C4=O)nn3)ccc12`, the zone of inhibition at 100 µg/mL in assay [1] was 12.3 mm; in assay [2] it was 23.4 mm; in [3], 14.5 mm; in assay [4], 16.9 mm; in [5], 12.5 mm; in assay [6], 13.6 mm. Further, the zone of inhibition at 100 µg/mL in assay [7] worked out at 12.6 mm; in assay [8] it was 12.5 mm; in assay [9], 12.9 mm; in [10], 12.7 mm; in assay [11] it was 12.6 mm.

Turning to `Cc1cc(=O)oc2cc(OCc3cn(CCCCN4C(=O)c5ccccc5C4=O)nn3)ccc12`, the zone of inhibition at 100 µg/mL in assay [1] came out at 13.5 mm; in [2], 18.9 mm; in assay [3], 14.8 mm; in assay [4] it was 16.6 mm; in assay [5], 12.6 mm; in assay [6], 11.6 mm. Also, the zone of inhibition at 100 µg/mL turned out to be 12.8 mm in assay [7]; 12.4 mm in [8]; 14 mm in assay [9]; 12.5 mm in assay [10]; 11.6 mm in assay [11].

Turning to `Cc1cc(=O)oc2cc(OCCCCn3cc(CN4C(=O)c5ccccc5C4=O)nn3)ccc12`, the zone of inhibition at 100 µg/mL in assay [1] was found to be 12.8 mm; in assay [2], 19 mm; in assay [3], 13.8 mm; in [4] it was 16.5 mm; in assay [5] it was 12.8 mm; in assay [6], 12.9 mm. Further, the zone of inhibition at 100 µg/mL in assay [7] was determined as 12.4 mm; in [8], 12.7 mm; in assay [9], 13.9 mm; in assay [10], 12.2 mm; in [11], 12.4 mm.

For the compound `Cc1cc(=O)oc2cc(OCCCCN=[N+]=[N-])ccc12`, the zone of inhibition at 100 µg/mL came out at 13.1 mm in assay [1]; 18.6 mm in assay [2]; 13.6 mm in assay [3]; 19.3 mm in [4]; 13.5 mm in assay [5]; 11.3 mm in [6]. Also, the zone of inhibition at 100 µg/mL in assay [7] came out at 12.7 mm; in assay [8] it was 13 mm; in assay [9], 12.8 mm; in assay [10] it was 12.9 mm; in assay [11], 12.5 mm.
